Columns and labels:
[1] = Particle size and polydispersity of LNP containing pro-drug (dynamic light scattering); assay type: physicochemical; set-up: Size of LNP: unit not given here
Description: (§1) LNPs were prepared by dissolving 1,2-Distearoyl-sn-glycero-3-phosphocholine (DSPC) or 1,2-dimyristoyl-sn-glycero-3-phosphocholine (DMPC), cholesterol and 1,2-Distearoyl-sn-glycero-3-phosphoethanolamine-Poly(ethylene glycol) (PEG-DSPE) in ethanol. DSPC, DMPC and PEG-DSPE were purchased from Avanti Polar Lipids (Alabaster, Ala.), and cholesterol was obtained from Sigma (St Louis, Mo.).
(§2) Drug-lipid-conjugates INT-D034, INT-D035, INT-D045, INT-D046, INT-D047, INT-D048, INT-D049, INT-D050, INT-D051, INT-D053, INT-D060, INT-D061, INT-D062, INT-D063, INT-D083, INT-D085, INT-D086, INT-D088 and INT-D089 (see FIG. 3 and Example 7 for structures) were dissolved in isopropanol or THF. LNP were prepared by rapidly mixing DSPC or DMPC, cholesterol, drug-lipid conjugate, and PEG-DSPE (in molar ratio of 49/40/10/1) with phosphate-buffered saline (PBS) using a cross-junction mixer. Formulations were dialyzed against PBS to remove residual ethanol. In formulation$ with more than 10 mol % drug-lipid conjugates, the amount of phospholipid or cholesterol was reduced accordingly.
(§3) The physiochemical properties of the LNPs prepared as described above were subsequently characterized. Particle size was determined by dynamic light scattering using a Malvern Zetasizer Nano ZS (Malvern, UK) following buffer exchange into phosphate-buffered saline. Number-weighted size and distribution date was used. Lipid concentrations were determined by measuring total cholesterol using the Cholesterol E enzymatic assay kit from Wako Chemicals USA (Richmond, Va.). The morphology of LNP formulations containing LD-DEX was analyzed by cryogenic-transmission electron microscopy (cryoTEM).

[2] = Encapsulation efficiency / incorporation of pro-drug in LNP; assay type: physicochemical
Description: as §1, §2, §3

J774.2 = test: Pro-inflammatory cytokine expression in LPS-stimulated macrophage cell line J774.2 (qRT-PCR); assay type: cell-based; settings: LNP formulation at doses equivalent to 1, 3 or 10 μM dexamethasone, 24 hours, 10 ng/mL LPS, versus control LNP
Description: (§4) The graph depicts the expression of the cytokines IL-1β (top), TNFα (middle) and IL-6 (bottom) after 24 hours of incubation of the cells with the above components at doses equivalent to 1, 3 or 10 μM of dexamethasone, followed by stimulation by 10 ng/mL lipopolysaccharide (LPS) overnight. Cytokine levels were measured by qRT-PCR and data was normalized to cells treated with control LNP without drug-lipid conjugates.
(§5) Cultured macrophage cell lines J774.2 (FIG. 8) and Raw264.7 (FIG. 9A) were incubated with immunostimulant LPS and LNP with or without ricinoleyl-dexamethasone conjugate INT-D034/INT-D035. After 24 hours, cells were harvested and were analyzed for expression of pro-Inflammatory cytokines IL1β, TNFα and IL-6. RNA was isolated from the cells and levels of pro-inflammatory cytokines ILIβ, TNFα and IL6 were determined by qRT-PCR.

Raw264.7 = test: Pro-inflammatory cytokine expression in LPS-stimulated Raw264.7 cells (qRT-PCR); assay type: cell-based; settings: LNP formulation at doses equivalent to 1, 3 or 10 μM dexamethasone, 24 hours, 10 ng/mL LPS, versus control LNP
Description: as §4, with “IL-10” for “IL-1β”, “LPS” for “lipopolysaccharide (LPS)”
as §4, with “IL-10” for “IL-1β (top), TNFα (middle) and IL-6 (bottom)”, “1” for “1, 3”, “LPS” for “lipopolysaccharide (LPS)”
as §5

CD4+ T cells = test: Mixed lymphocyte reaction (MLR) assay, BMDCs with allogeneic CD4+ T cells; assay type: cell-based, mice; settings: LNP containing 10-99 mol % conjugate; BMDCs treated 48 hours, LPS 24 hours; 5:1 or 10:1 T-to-BMDC ratio; 3 days; flow cytometry
Description: Bone marrow derived dendritic cells (BMDCs) from C57Bl/6 male mice were first treated with LNP containing various mol % of the dexamethasone or calcitriol conjugates for 48 hours and then activated by incubation with LIPS for 24 hours. They were then harvested and mixed with CD4+ T cells isolated from Balb/cJ male mice (Jackson Laboratories) at 5:1 or 10:1 T-to-BMDC ratio.
Dexamethasone and calcitriol can tolerize antigen presenting cells (APCs). […] Bone marrow derived dendritic cells (BMDCs) from C57BI/6 male mice (Charles River) were first treated with LNP containing various mol % of dexamethasone or calcitriol conjugates for 48 hours and then activated by incubation with LPS for 24 hours. They were then harvested and mixed with CD4+ T cells isolated from Balb/cl male mice (Jackson Laboratories) at 5:1 or 10:1 T-to-BMDC ratio. The levels of T cells proliferation after 3 days were quantified using flow cytometry.

[3] = LNP containing 10 mol % conjugate, primary PC-lipid DMPC
[4] = LNP formulations containing pro-drugs (10 mol %, FIG. 6A)
[5] = LNP, pro-drug concentration 10 %
[6] = LNP, pro-drug concentration 20 %
[7] = LNP, pro-drug concentration 30 %
[8] = LNP, pro-drug concentration 40 %
[9] = LNP, pro-drug concentration 50 %
[10] = LNP, pro-drug concentration 60 %
[11] = LNP, pro-drug concentration 80 %
[12] = LNP, pro-drug concentration 95 %
[13] = LNP, pro-drug concentration 98 %
[14] = LNP, pro-drug concentration 99 %
[15] = all LNP formulations at 0 to 99 mol % pro-drug concentration

CCCCCC[C@H](C/C=C\CCCCCCCCOC(=O)CCC(=O)OCC(=O)[C@@]1(O)[C@H](C)C[C@H]2[C@@H]3CCC4=CC(=O)C=C[C@]4(C)[C@@]3(F)[C@@H](O)C[C@@]21C)OC(=O)CCCCC [INT-D034, 2-((8S,9R,10S,11S,13S,14S,16R,17R)-9-Fluoro-11,17-dihydroxy-10,13,16-trimethyl-3-oxo-6,7,8,9,10,11,12,13,14,15,16,17-dodecahydro-3H-cyclopenta[a]57ctadic57rene-17-yl)-2-oxoethyl ((R,Z)-12-(hexanoyloxy)57ctadic-9-en-1-yl) succinate]
Particle Diameter (nm) [1, 3]: 72 nm | Polydispersity index (PDI) [1, 3]: 0.02 | PdI [1, 4]: 0.08 | Size of LNP [1, 4]: 70 | PdI [1, 5]: 0.064 | Size (nm) [1, 5]: 48 nm | PdI [1, 6]: 0.068 | Size (nm) [1, 6]: 45 nm | PdI [1, 7]: 0.082 | Size (nm) [1, 7]: 43 nm | PdI [1, 8]: 0.100 | Size (nm) [1, 8]: 41 nm | PdI [1, 9]: 0.085 | Size (nm) [1, 9]: 32 nm | PdI [1, 10]: 0.022 | Size (nm) [1, 10]: 48 nm | PdI [1, 11]: 0.025 | Size (nm) [1, 11]: 87 nm | PdI [1, 12]: 0.082 | Size (nm) [1, 12]: 29 nm | PdI [1, 13]: 0.014 | Size (nm) [1, 13]: 52 nm | PdI [1, 14]: 0.011 | Size (nm) [1, 14]: 86 nm | Polydispersity index (PDI) [1, 15]: ≤ 0.1 | particle diameter [1, 15]: 29-87 nm | Encapsulation Efficiency (%) [2, 3]: 100% | % Entrapment [2, 4]: 99% | encapsulation efficiencies [2, 15]: high | levels of pro-inflammatory cytokines (IL1β, TNFα, IL-6) (J774.2): reduced levels of pro-inflammatory cytokines in a dose-dependent manner | levels of pro-inflammatory cytokines (IL1β, TNFα, IL-6) (Raw264.7): reduced levels of pro-inflammatory cytokines in a dose-dependent manner | allogeneic T-cell proliferation (CD4+ T cells): able to suppress allogeneic T-cell proliferation
